These results are taken from patent US20090215752A1, “Compounds, preparation and therapeutic use thereof” (priority 2005, published 2009).

Assay [1] concerns σ (non-selective) receptors. Kind of assay: Sigma receptors binding, non-selective ([3H]DTG). The conditions noted are these: [3H]DTG 8 nM, rat cerebral cortex. As to the method: The sigma receptors were isolated from rat cerebral cortex according to the method described in Shirayama et al., 1993, p-Chlorophenylalanine-reversible reduction of s binding sites by chronic imipramine treatment in rat brain, Eur. J. Pharmacol., 237: 117-126.
(§1) Sigma 1 receptor binding was determined by a radioligand method using tritium-labelled DTG (8 nM) as substrate (Shirayama et al., 1993). Ligand radioactivity was determined by liquid scintillation counting. For sigma binding evaluation, ligand incubations were carried out for one hundred twenty minutes at 22° C. The experiments were conducted in duplicate.
The specific ligand binding to the sigma receptors was defined as the difference between the total binding and the non specific binding determined in presence of an excess of unlabelled ligand. […]

A further assay addresses T1, PDE2 (Homo sapiens, UniProt O00408).
T1 construct: PDE2 was isolated from human platelets, provided by Etablissement Français du Sang-Alsace; tissue Etablissement Français du Sang-Alsace; host or cells: human platelets
Kind of assay: Inhibition of PDE2 (radioenzymatic phosphodiesterase assay). Type of assay: biochemical. Particulars: Table 1, 1 μM cyclic AMP. An outline of the steps:
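PDE2 isolated from human platelets was assayed radioenzymatically with 1 μM [3H]-cAMP substrate, limiting hydrolysis to ≤15%, in duplicate. Product was converted to nucleoside by nucleotidase, separated by anion exchange and counted by scintillation; IC50 from nonlinear regression of hydrolysis rates.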

A further assay deals with T2, sigma 2 receptors (Rattus norvegicus, UniProt Q5U3Y7).
T2 construct: The sigma 2 receptors were isolated from rat cerebral cortex; from tissue; host or cells: rat cerebral cortex
T2 sequence (Q5U3Y7 1-176): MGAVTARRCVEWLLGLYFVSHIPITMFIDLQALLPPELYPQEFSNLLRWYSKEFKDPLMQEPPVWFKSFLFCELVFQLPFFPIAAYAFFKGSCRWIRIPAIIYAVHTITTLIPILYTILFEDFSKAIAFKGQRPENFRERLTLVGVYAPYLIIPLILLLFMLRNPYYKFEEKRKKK
The assay can be described thus: Sigma 2 receptor binding ([3H]DTG + (+)pentazocine). The conditions noted are these: [3H]DTG 5 nM + 300 nM (+)pentazocine, rat cerebral cortex, read-out: σ2 percentage inhibition at 10 μM. On the procedure: The sigma 1 receptors were isolated from guinea pig cerebral cortex according to the method described in Bowen et al., 1993.
as §1, with “(+)pentazocine (2” for “DTG (8”, “(Bowen et al., 1993). Sigma 2 receptor binding was determined by a radioligand method using tritium-labelled DTG (+300 nM (+)pentazocine) (5 nM) as substrate (Bowen” for “(Shirayama”, “sigma 1 binding evaluation, ligand incubations were carried out for one hundred fifty minutes at 22° C. For sigma 2” for “sigma”
The specific ligand binding to the sigma receptors was defined as the difference between the total binding and the non specific binding determined in presence of an excess of unlabelled ligand. The results obtained are presented in Table 4 hereinbelow and are expressed as percent of control specific binding and as a percent inhibition of control specific binding obtained in presence of 10 μM of substance.

SMILES strings stand for the structures.

By inhibition is commonly meant the relative decrease from the control value, in per cent. A word on the IC50: it is the point on the concentration scale where inhibition reaches its midpoint.

T1 sequence (O00408 whole entry): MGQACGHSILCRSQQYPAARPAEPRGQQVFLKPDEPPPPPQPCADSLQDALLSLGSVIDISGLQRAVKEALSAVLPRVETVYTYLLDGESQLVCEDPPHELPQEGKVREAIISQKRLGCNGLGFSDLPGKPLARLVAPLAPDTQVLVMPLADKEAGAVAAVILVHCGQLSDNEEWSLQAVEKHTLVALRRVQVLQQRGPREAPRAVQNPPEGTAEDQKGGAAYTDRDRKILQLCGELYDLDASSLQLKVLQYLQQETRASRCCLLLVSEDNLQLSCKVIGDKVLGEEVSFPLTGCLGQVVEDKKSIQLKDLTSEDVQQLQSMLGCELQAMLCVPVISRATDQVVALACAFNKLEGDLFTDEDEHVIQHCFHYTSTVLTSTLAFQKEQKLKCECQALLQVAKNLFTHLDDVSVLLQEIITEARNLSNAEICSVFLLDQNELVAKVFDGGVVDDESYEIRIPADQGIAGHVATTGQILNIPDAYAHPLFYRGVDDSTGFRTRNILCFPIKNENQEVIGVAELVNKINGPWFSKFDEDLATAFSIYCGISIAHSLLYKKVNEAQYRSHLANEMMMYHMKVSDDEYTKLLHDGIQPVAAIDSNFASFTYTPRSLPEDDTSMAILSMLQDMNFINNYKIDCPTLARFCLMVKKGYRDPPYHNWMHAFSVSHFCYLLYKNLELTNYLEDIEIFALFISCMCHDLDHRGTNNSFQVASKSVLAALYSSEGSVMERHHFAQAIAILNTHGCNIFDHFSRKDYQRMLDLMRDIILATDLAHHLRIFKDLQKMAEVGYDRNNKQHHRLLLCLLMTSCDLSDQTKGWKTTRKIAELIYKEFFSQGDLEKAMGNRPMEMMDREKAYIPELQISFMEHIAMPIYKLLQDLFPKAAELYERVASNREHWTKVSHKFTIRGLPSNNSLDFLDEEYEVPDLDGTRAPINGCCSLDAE

Regarding `COc1cc2c(c(OC)c1-c1ccccc1)C(c1cccc(C(N)=O)c1)=NCC(=O)N2C` [Compound 17, 3-(6,8-Dimethoxy-1-methyl-2-oxo-7-phenyl-2,3-dihydro-1H-benzo[e][1,4]diazepin-5-yl)-benzamide], the “σ (non-selective) percentage inhibition at 0.1 μM” value in assay [1] (0.1 μM) worked out at 1%. Besides, the “σ (non-selective) percentage inhibition at 1 μM” value in assay [1] (1 μM) is reported as 57%. Further, the “σ (non-selective) percentage inhibition at 10 μM” value in assay [1] (10 μM) is on record as 100%. The inhibition at 10 µM turned out to be 80% on PDE2 (10 μM compound, read-out: PDE2 percentage inhibition at 10 μM) and 93% on sigma 2 receptors. Besides, the IC50 at PDE2 (value in square brackets, read-out: PDE2 IC50) was found to be 0.8 µM.
